Reference: patent US20260217691A1, “FOXM1 INHIBITORS AND THEIR USE IN TREATING CANCERS” (THE BOARD OF TRUSTEES OF THE UNIVERSITY OF ILLINOIS, priority 2022, published 2026)

Biological target: T1, FOXM1 (Homo sapiens, UniProt Q08050)
T1 sequence (Q08050 1-763): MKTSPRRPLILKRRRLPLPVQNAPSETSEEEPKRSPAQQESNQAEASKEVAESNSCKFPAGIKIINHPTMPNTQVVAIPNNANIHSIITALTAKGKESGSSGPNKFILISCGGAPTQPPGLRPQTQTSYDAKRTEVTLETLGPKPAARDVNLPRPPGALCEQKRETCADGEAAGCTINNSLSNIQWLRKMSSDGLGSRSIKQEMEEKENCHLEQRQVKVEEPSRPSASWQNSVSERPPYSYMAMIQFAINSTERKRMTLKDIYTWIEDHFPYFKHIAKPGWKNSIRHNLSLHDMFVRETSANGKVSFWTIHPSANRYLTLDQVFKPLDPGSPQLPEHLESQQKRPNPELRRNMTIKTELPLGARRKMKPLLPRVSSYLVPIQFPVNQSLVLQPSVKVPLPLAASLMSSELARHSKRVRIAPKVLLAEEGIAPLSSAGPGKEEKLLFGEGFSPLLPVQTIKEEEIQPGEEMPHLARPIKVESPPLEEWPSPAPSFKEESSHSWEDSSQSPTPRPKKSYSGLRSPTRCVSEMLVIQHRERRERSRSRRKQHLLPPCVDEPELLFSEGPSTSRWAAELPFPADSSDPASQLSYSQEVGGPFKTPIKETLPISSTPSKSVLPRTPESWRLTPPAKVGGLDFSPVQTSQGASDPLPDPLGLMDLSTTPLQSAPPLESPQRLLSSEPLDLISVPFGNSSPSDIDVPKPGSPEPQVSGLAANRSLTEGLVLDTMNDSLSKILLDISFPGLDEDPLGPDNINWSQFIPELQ
Experiment: FOXM1 protein levels by immunoblotting in leukemia/AML cell lines
Format: cell-based
Design: Total protein samples obtain from treated cells were analyzed for FOXM1 protein levels via immunoblotting; endogenous in cells; host or cells: KG-1, HL-60, K562, THP-1 leukemia cell lines
Method: [a] Leukemia cells, KG-1, HL-60 and K562 were treated with increasing concentrations of STL427944 for 24 hrs. […] [b] THP1 and KG-1 cells were treated with indicated concentrations of venetoclax and STL427944 alone or in combination for 24 hrs. [c] KG-1 and K562 cells were treated with indicated concentrations of cytarabine and STL427944 alone or in combination for 24 hrs.
FIG. 8. STL427944 treatment of human leukemia cell lines suppress FOXM1 protein expression. (a) STL427944 treatment of human leukemia cell lines inhibit FOXM1 protein expression and sensitize cells to venetoclax treatment. […] (b) Stable shRNA-mediated FOXM1 knockdown prominently sensitizes KG-1 cells to cytotoxic effect of venetoclax. (c, d) combined treatment with STL427944 and venetoclax suppresses FOXM1 in KG-1 and THP-1 cells and synergistically promotes cytotoxic effects similarly to FOXM1 knockdown. Total protein was isolated from cells immediately after the treatment and analyzed via immunoblotting with FOXM1 antibodies). Apoptosis induction was estimated based on caspase-3 cleavage.
FIGS. 9A and 9B: Novel FOXM1 inhibitor STL001 sensitizes Leukemia cells to chemotherapy agents. [a] Structural formula of novel FOXM1 inhibitor STL001. [b] Leukemia cells, KG-1, HL-60, and K562 were treated with increasing concentrations of STL001 for 24 hrs. […] [c] KG-1 cells were treated with indicated concentrations of Laptomycin B, Chloroquine, and STL001 for 24 hrs. […] [d] KG-1, HL-60, and K562 cells were treated with indicated concentrations of venetoclax and STL001 alone or in combination for 24 hrs. [e] KG-1, HL-60, and K562 cells were treated with indicated concentrations of cytarabine and STL alone or in combination for 24 hrs.
FIGS. 13A-13H STL001 is a novel FOXM1 inhibitor that sensitizes leukemia cells to standard cytotoxic and bcl2 inhibitor therapies. FIG. 13A AML cell line KG-1 treated with precursor compound STL427944. FIG. 3B AML cell lines KG-1, HL-60, and K562 were treated with increasing concentrations of STL001 for 24 h. Total protein samples obtained from treated cells were analyzed for FOXM1 protein levels using immunoblotting; β-actin was used as the internal loading control. FIG. 13C KG-1, HL-60, and K562 cells were treated with indicated concentrations of venetoclax and STL001 alone or in combination for 24 h. FIG. 13D KG-1, HL-60, and K562 cells were treated with indicated concentrations of cytarabine and STL001 alone or in combination for 24 h. […] FIG. 13E KG-1 cells were treated with indicated concentrations of Leptomycin B, Chloroquine, and STL001 for 24 h. Total protein samples obtained from treated cells were analyzed for FOXM1 protein levels via immunoblotting; β-actin was used as an internal loading control. FIG. 13F KG-1 cell lines with shRNA knockdown of FOXM1 were treated with venetoclax and STL001 and compared to parental cells. FIG. 13G Real-time PCR-based expression profiling for canonical FOXM1 target genes was performed on primary AML mononuclear cells (n=5) treated ex vivo with STL001 5 μM for 24 h. Mean and standard error of the delta Ct for DMSO or treatment group are plotted for each gene. P-value is estimated by two-tailed paired t-test. Asterisks denote P<0.05. FIG. 13H Treatment of peripheral blood mononuclear cells with STL001 for 24 h followed by immunohistochemistry for FOXM1. Slides were scanned on an Aperio AT2 brightfield scanner and images were analyzed using HALO 2.0 software. Hematoxylin counterstain was used to segment nuclei within the ROIs and to establish an accurate cell count. Percent cells with nuclear FOXM1 expression compared between DMSO and STL001 treated cells. P-value is based on one-tailed paired t-test.

O=C(Oc1cccc(-c2ccn(-c3nc(Nc4ccccc4)nc(N4CCOCC4)n3)n2)c1)c1ccco1 [STL001]
concentration suppressing FOXM1 (AML cell lines): 0.5 µM | FOXM1 localization (AML cells): localizes FOXM1 to the cytoplasm | lowest concentration with dose-dependent inhibition of FOXM1 protein expression (KG-1, HL-60, K562, 24 h): 500 nM | improvement in efficiency to suppress FOXM1 / increased potency as FOXM1 inhibitor versus STL427944 (estimated, relative to STL427944): up to 50 fold | FOXM1 protein levels (leukemia cell lines, increasing concentrations, 24 h): dose-dependent inhibition of FOXM1 protein expression
